Our source for the IC50 values is ChEMBL document CHEMBL3879908, “Pyrrolidinone carboxamide derivatives” (2014).

Where only a bound is given, the exact number is not on record here.

The assay deals with T1, Chemerin-like receptor 1 (Homo sapiens, UniProt Q99788).
T1 sequence (Q99788 whole entry): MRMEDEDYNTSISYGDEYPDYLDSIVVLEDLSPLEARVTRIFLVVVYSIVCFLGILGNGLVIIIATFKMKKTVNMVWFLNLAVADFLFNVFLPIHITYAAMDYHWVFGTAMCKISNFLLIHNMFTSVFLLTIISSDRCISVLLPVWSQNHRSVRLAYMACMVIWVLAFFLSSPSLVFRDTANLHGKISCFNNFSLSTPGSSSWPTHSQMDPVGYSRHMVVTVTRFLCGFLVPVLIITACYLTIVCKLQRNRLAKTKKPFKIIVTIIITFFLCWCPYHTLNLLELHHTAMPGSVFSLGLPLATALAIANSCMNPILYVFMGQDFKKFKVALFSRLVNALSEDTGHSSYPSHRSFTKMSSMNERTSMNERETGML
Description: Displacement of [125I]-chemerin from ChemR23 (unknown origin) transfected in mouse BaF3 cells after 3 hrs by scintillation counting method. In kind it is cell-based. In general terms: In a radioligand displacement assay an active substance lowers the binding of a labelled ligand.
By IC50 is commonly meant the concentration that inhibits the measured activity by half. As to `Cc1cccc(C)c1N1C[C@@](CN(C)CC(C)C)(C(=O)Nc2cc(C(F)(F)F)cc(C(F)(F)F)c2)[C@H](C)C1=O`, the IC50 was ≤ 30 nM.
On to `Cc1cccc(C)c1N1C[C@@](CN2CCC(F)(F)CC2)(C(=O)Nc2cc(C#N)cc(C(F)(F)F)c2)[C@H](C)C1=O`, for which the IC50 fell in the range of 30 to 300 nM.
With `CCc1cccc(C)c1N1CC(C(=O)Nc2ccc(C(F)(F)F)cc2)CC1=O` (stereo unspecified), the IC50 is 300 to 6000 nM.
As to `Cc1cccc(C)c1N1CC(C(=O)Nc2cc(C(F)(F)F)cc(C(F)(F)F)c2)(C2=CCN(C)CC2)CC1=O` (stereo unspecified), the IC50 lay within 30 to 300 nM.
In turn, `Cc1cccc(C)c1N1CC(C(=O)Nc2ccc(Cl)cc2Cl)CC1=O` (stereo unspecified) gave an IC50 of 300 to 6000 nM.
With `Cc1cccc(C)c1N1CC(C(=O)Nc2cc(C(F)(F)F)cc(C(F)(F)F)c2)(C2CCCCC2)CC1=O` (stereo unspecified), the IC50 is ≤ 30 nM.
Regarding `CCOc1cc(NC(=O)[C@]2(CC)CN(c3c(C)cccc3C)C(=O)[C@H]2C)cc(C(F)(F)F)c1`, the IC50 was 30 to 300 nM.
As to `COCc1cccc(C)c1N1C[C@](C(=O)Nc2cc(C(F)(F)F)cc(C(F)(F)F)c2)(C(C)C)CC1=O`, the IC50 fell in the range of 30 to 300 nM.
For the compound `COc1cccc(C)c1N1CC(C(=O)Nc2cc(F)cc(F)c2)CC1=O` (stereo unspecified), the IC50 was 30 to 300 nM.
For the compound `Cc1cccc(C)c1N1C[C@](C(=O)Nc2cc(C3CC3)cc(C(F)(F)F)c2)(C(C)C)CC1=O`, the IC50 is ≤ 30 nM.
Regarding `CC[C@]1(C(=O)Nc2cc(Cl)cc(C(F)(F)F)c2)CC(=O)N(c2c(C)cccc2C)C1`, the IC50 fell in the range of 30 to 300 nM.
With `Cc1cccc(C)c1N1C[C@@](CN2CCCC2)(C(=O)Nc2cc(C(F)(F)F)cc(C(F)(F)F)c2)[C@H](C)C1=O`, the IC50 lay in the range of 300 to 6000 nM.
Take `Cc1cccc(C)c1N1C[C@@](CN2CCN(CC(F)(F)F)CC2)(C(=O)Nc2cc(F)cc(C(F)(F)F)c2)[C@H](C)C1=O`: the IC50 fell in the range of 30 to 300 nM.
The same measure for `CCN(CC)C[C@@]1(C(=O)Nc2cc(OC(C)C)cc(C(F)(F)F)c2)CN(c2c(C)cccc2C)C(=O)[C@H]1C`: 30 to 300 nM.
As for `Cc1cccc(C)c1N1C[C@@](CN2CCCC(F)(F)C2)(C(=O)Nc2cc(C(F)(F)F)cc(C(F)(F)F)c2)[C@H](C)C1=O`, the IC50 lay within 30 to 300 nM.
The same measure for `Cc1cccc(C)c1N1CC2(C(=O)Nc3cc(C(F)(F)F)cc(C(F)(F)F)c3)CC2C1=O` (stereo unspecified): 300 to 6000 nM; for `Cc1cccc(C)c1N1C[C@@](CN(CCF)CC2CC2)(C(=O)Nc2cc(C(F)(F)F)cc(C(F)(F)F)c2)[C@H](C)C1=O`: ≤ 30 nM.
Turning to `Cc1cccc(C)c1N1C[C@@](CN2CCC(F)(F)CC2)(C(=O)Nc2cc(C(F)(F)F)cc(C(F)(F)F)c2)[C@H](C)C1=O`, the IC50 is ≤ 30 nM.
Take `Cc1cccc(C)c1N1C[C@@](CN2CCCC2)(C(=O)Nc2cc(C#N)cc(C(F)(F)F)c2)[C@H](C)C1=O`: the IC50 is ≤ 30 nM.
The compound `CCc1cccc(C)c1N1CC(C(=O)Nc2ccc(F)c(C(F)(F)F)c2)CC1=O` (stereo unspecified) had an IC50 of 300 to 6000 nM.
Turning to `CC[C@@]1(C(=O)Nc2cc(C(F)(F)F)cc(C(F)(F)F)c2)CN(c2c(C)cccc2C)C(=O)[C@@H]1C`, the IC50 lay in the range of 30 to 300 nM.
As for `Cc1cccc(C)c1N1CC(CN2CCCC2)(C(=O)Nc2cc(C3CC3)cc(C(F)(F)F)c2)CC1=O` (stereo unspecified), the figure is ≤ 30 nM; as for `Cc1cccc(C)c1N1CC(C(=O)Nc2cc(C(F)(F)F)cc(C(F)(F)F)c2)(C2=CCOCC2)CC1=O` (stereo unspecified), ≤ 30 nM.
Consider `Cc1cccc(Br)c1N1CC(C(=O)Nc2cc(C(F)(F)F)cc(C(F)(F)F)c2)(C(C)C)CC1=O` (stereo unspecified), for which the IC50 is ≤ 30 nM.
In turn, `CCC(C)(C)C1(C(=O)Nc2cc(C(F)(F)F)cc(C(F)(F)F)c2)CC(=O)N(c2c(C)cccc2C)C1` (stereo unspecified) registered an IC50 of 30 to 300 nM.
Compound `CCc1cc(NC(=O)[C@]2(CN3CCC(F)(F)CC3)CN(c3c(C)cccc3C)C(=O)[C@H]2C)cc(C(F)(F)F)c1` came in with an IC50 of 30 to 300 nM.
Turning to `Cc1ccccc1N1CC(C(=O)Nc2cc(C3CC3)cc(C(F)(F)F)c2)(C(C)C)CC1=O` (stereo unspecified), the IC50 lay within 30 to 300 nM.
The same measure for `Cc1cccc(C)c1N1CC(CCCO)(C(=O)Nc2cc(C(F)(F)F)cc(C(F)(F)F)c2)CC1=O` (stereo unspecified): 30 to 300 nM; for `Cc1cccc(C)c1N1CC2(C(=O)Nc3cc(C(F)(F)F)cc(C(F)(F)F)c3)COC=CC2C1=O` (stereo unspecified): ≤ 30 nM; for `Cc1cccc(S(C)(=O)=O)c1N1CC(C(=O)Nc2cc(C(F)(F)F)cc(C(F)(F)F)c2)CC1=O` (stereo unspecified): 300 to 6000 nM.
With `Cc1cccc(C)c1N1C[C@@](C)(C(=O)Nc2cc(Cl)cc(Cl)c2)[C@H](C)C1=O`, the IC50 is ≤ 30 nM.
On to `CO[C@@H]1CC2C(=O)N(c3c(C)cccc3C)CC2(C(=O)Nc2cc(C(F)(F)F)cc(C(F)(F)F)c2)C1` (stereo partly specified), for which the IC50 was ≤ 30 nM.
On to `CCCC[C@@]1(C(=O)Nc2cc(C(F)(F)F)cc(C(F)(F)F)c2)CN(c2c(C)cccc2C)C(=O)[C@H]1C`, for which the concentration for half-maximal inhibition (IC50) was ≤ 30 nM.
On to `Cc1cccc(C)c1N1C[C@@](CN(C)CCCCF)(C(=O)Nc2cc(C(F)(F)F)cc(C(F)(F)F)c2)[C@H](C)C1=O`, for which the IC50 is ≤ 30 nM.
The same measure for `Cc1cccc(CCO)c1N1CC(C(=O)Nc2cc(C(F)(F)F)cc(C(F)(F)F)c2)(C(C)C)CC1=O` (stereo unspecified): 300 to 6000 nM; for `CCc1cccc(C)c1N1CC(C(=O)Nc2cccc(C(F)(F)F)c2)CC1=O` (stereo unspecified): 300 to 6000 nM.
